Laboratory results reported in the supplement of paper PMC10331698.
± gives the standard deviation of the averaged measurements.

Legend:
Assay in all cases: level (log10 ratio to DMSO vehicle control); higher = higher biomarker level / cell amount than vehicle control
Details in all cases: in DMSO
[1] = compound: CNS(=O)(=O)C(F)(F)C(F)(F)C(F)(F)C(F)(F)C(F)(F)C(F)(F)C(F)(F)C(F)(F)F [N-Methylperfluorooctanesulfonamide]
Experimental: (§1)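 BioMAP Diversity Plus panel of 12 human primary cell co-culture systems (3C, 4H, LPS, SAg, BT, BF4T, BE3C, CASM3C, HDF3CGF, KF3CT, MyoF, Mphg). Compounds were added 1 h before stimulation and left for 24 h (MyoF 48 h; BT 72 h for soluble read-outs or 6 d for IgG). Biomarkers were read by ELISA, cytotoxicity by SRB, PBMC viability and proliferation by Alamar Blue. Each well value was divided by the mean of 8 DMSO control wells on the same plate and log10 transformed; duplicate blinded samples were tested at 4 concentrations.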

Azathioprine = compound: Cn1cnc([N+](=O)[O-])c1Sc1ncnc2[nH]cnc12 [Azathioprine]
Experimental: as §1

[2] = compound: O=S(=O)(O)C(F)(F)C(F)(F)C(F)(F)C(F)(F)C(F)(F)C(F)(F)C(F)(F)C(F)(F)F [Potassium perfluorooctanesulfonate]
Experimental: as §1

[3] = compound: O=P(O)(O)CCC(F)(F)C(F)(F)C(F)(F)C(F)(F)C(F)(F)C(F)(F)C(F)(F)C(F)(F)F [((Perfluorooctyl)ethyl)phosphonic acid]
Experimental: as §1

[4] = compound: C=C(C)C(=O)OCC(F)(F)C(F)(F)C(F)(F)C(F)(F)C(F)(F)C(F)(F)C(F)(F)F
Experimental: as §1

[5] = compound: O=C(O)C(F)(F)OC(F)(F)C(F)(F)OC(F)(F)C(F)(F)C(F)(F)C(F)(F)F [Perfluoro-3,6-dioxadecanoic acid]
Experimental: as §1

1-(Perfluorohexyl)octane = compound: CCCCCCCCC(F)(F)C(F)(F)C(F)(F)C(F)(F)C(F)(F)C(F)(F)F [1-(Perfluorohexyl)octane]
Experimental: as §1

Test System | level (log10) ([1]; 6700 nM) | level (log10) ([1]; 20000 nM) | level (log10) ([1]; 60000 nM) | level (log10) (Azathioprine; 1400 nM) | level (log10) (Azathioprine; 4200 nM) | level (log10) (Azathioprine; 13000 nM) | level (log10) (Azathioprine; 38000 nM) | level (log10) ([2]; 6700 nM) | level (log10) ([2]; 20000 nM) | level (log10) ([2]; 60000 nM) | level (log10) ([3]; 6700 nM) | level (log10) ([3]; 20000 nM) | level (log10) ([3]; 60000 nM) | level (log10) ([4]; 6700 nM) | level (log10) ([4]; 20000 nM) | level (log10) ([5]; 6700 nM) | level (log10) ([5]; 20000 nM) | level (log10) ([5]; 60000 nM) | level (log10) (1-(Perfluorohexyl)octane; 6700 nM) | level (log10) (1-(Perfluorohexyl)octane; 20000 nM)
CASM3C:CD87/uPAR | -0.0035 ± 0.0064 | -0.0255 ± 0.022 | -0.0495 ± 0.013 | 0.0115 ± 0.0021 | 0.014 ± 0.0099 | -0.002 ± 0.067 | -0.0325 ± 0.0035 | -0.0025 ± 0.012 | -0.016 ± 0.0014 | -0.0095 ± 0.011 | -0.022 ± 0.013 | -0.0345 ± 0.015 | -0.041 ± 0.014 | 0.0005 ± 0.0035 | 0.003 ± 0.023 | 0.001 ± 0.0014 | -0.0055 ± 0.0064 | -0.0175 ± 0.025 | -0.0175 ± 0.0078 | -0.005 ± 0.011
CASM3C:CD106/VCAM-1 | -0.088 ± 0.044 | -0.14 ± 0.061 | -0.0895 ± 0.06 | -0.0125 ± 0.022 | -0.0155 ± 0.0092 | -0.0485 ± 0.018 | -0.136 ± 0.023 | -0.0125 ± 0.019 | -0.0175 ± 0.005 | -0.104 ± 0.041 | -0.0325 ± 0.00071 | 0 ± 0.0014 | 0.0335 ± 0.019 | 0.011 ± 0.0014 | -0.0155 ± 0.046 | 0.001 ± 0.011 | -0.0145 ± 0.0092 | 0.0065 ± 0.037 | -0.023 ± 0.0014 | -0.0115 ± 0.021
CASM3C:CD141/Thrombomodulin | 0.0085 ± 0.019 | -0.028 ± 0.057 | -0.002 ± 0.044 | -0.004 ± 0.011 | -0.057 ± 0.035 | -0.043 ± 0.025 | -0.0405 ± 0.1 | 0.0235 ± 0.0021 | -0.004 ± 0.018 | -0.021 ± 0.031 | -0.01 ± 0.0071 | -0.014 ± 0.0042 | 0.0245 ± 0.015 | 0.002 ± 0.048 | -0.0265 ± 0.035 | -0.022 | -0.0225 ± 0.00071 | 0.0315 ± 0.046 | -0.0145 ± 0.00071 | -0.0165 ± 0.03
CASM3C:CD142/Tissue Factor | -0.025 ± 0.037 | -0.0115 ± 0.005 | 0.019 ± 0.011 | -0.0115 ± 0.015 | -0.026 ± 0.034 | -0.0345 ± 0.021 | -0.0295 ± 0.025 | -0.016 ± 0.041 | -0.014 ± 0.023 | -0.0265 ± 0.029 | -0.0235 ± 0.019 | -0.006 ± 0.0099 | 0.046 ± 0.079 | 0.002 ± 0.0057 | -0.0195 ± 0.0021 | 0.001 | -0.008 ± 0.0042 | 0.0105 ± 0.052 | -0.0265 ± 0.028 | -0.0295 ± 0.005
CASM3C:CXCL8/IL-8 | -0.003 ± 0.017 | 0.012 ± 0.025 | 0.035 ± 0.021 | -0.0095 ± 0.0064 | -0.023 ± 0.0085 | -0.023 ± 0.0057 | -0.009 ± 0.024 | 0.001 ± 0.027 | 0.023 ± 0.018 | 0.048 ± 0.04 | -0.01 ± 0.02 | 0 ± 0.024 | 0.023 ± 0.048 | -0.015 ± 0.018 | -0.001 ± 0.016 | -0.0005 ± 0.013 | -0.008 | 0.023 ± 0.028 | -0.001 ± 0.017 | 0.006 ± 0.0099
CASM3C:CXCL9/MIG | -0.0675 ± 0.026 | -0.086 ± 0.0085 | -0.05 ± 0.045 | 0.012 ± 0.033 | -0.0135 ± 0.005 | 0.008 ± 0.0057 | 0.0525 ± 0.042 | 0.015 ± 0.0071 | 0.012 ± 0.016 | 0.09 ± 0.027 | 0.0115 ± 0.011 | 0.019 ± 0.028 | 0.041 ± 0.03 | 0.0005 ± 0.011 | 0.014 ± 0.014 | -0.006 ± 0.0085 | -0.0045 ± 0.015 | 0.0155 ± 0.06 | -0.0115 ± 0.0021 | 0.0255 ± 0.005
CASM3C:HLA-DR | -0.0525 ± 0.039 | -0.0875 ± 0.011 | -0.0315 ± 0.079 | -0.0165 ± 0.0021 | -0.0115 ± 0.026 | -0.0405 ± 0.011 | -0.055 ± 0.031 | -0.0015 ± 0.0021 | -0.035 ± 0.028 | -0.0235 ± 0.054 | -0.0265 ± 0.012 | -0.048 | -0.03 ± 0.081 | -0.015 ± 0.017 | -0.0125 ± 0.0021 | 0.002 ± 0.03 | 0.0015 ± 0.011 | 0.0245 ± 0.026 | -0.0155 ± 0.015 | -0.0125 ± 0.005
CASM3C:IL-6 | -0.0605 ± 0.036 | -0.066 ± 0.02 | -0.0025 ± 0.035 | 0.011 ± 0.051 | -0.045 ± 0.0057 | -0.051 ± 0.0085 | -0.042 ± 0.072 | -0.025 ± 0.0042 | -0.0285 ± 0.016 | -0.0425 ± 0.083 | -0.0215 ± 0.06 | -0.004 ± 0.025 | 0.0865 ± 0.032 | -0.0235 ± 0.0092 | 0.015 ± 0.013 | -0.0205 ± 0.005 | -0.0205 ± 0.0021 | -0.0085 ± 0.03 | -0.019 ± 0.031 | 0.0205 ± 0.023
CASM3C:LDLR | 0.002 ± 0.013 | -0.0385 ± 0.059 | 0.0025 ± 0.0092 | -0.0055 ± 0.018 | -0.01 ± 0.0085 | -0.024 ± 0.023 | -0.034 ± 0.011 | 0.021 ± 0.0014 | 0.0275 ± 0.019 | -0.0205 ± 0.036 | -0.0075 ± 0.0021 | -0.005 ± 0.0042 | 0.0505 ± 0.039 | -0.0135 ± 0.0021 | 0.03 ± 0.024 | 0.0015 ± 0.022 | -0.016 ± 0.0028 | -0.0065 ± 0.023 | -0.0125 ± 0.00071 | 0.019 ± 0.014
CASM3C:M-CSF | 0 ± 0.016 | 0.0105 ± 0.077 | 0.0575 ± 0.042 | 0.0065 ± 0.00071 | -0.0255 ± 0.018 | -0.0305 ± 0.0064 | -0.007 ± 0.038 | 0.003 ± 0.028 | 0.016 ± 0.016 | -0.007 ± 0.064 | -0.0145 ± 0.011 | -0.008 ± 0.011 | 0.045 ± 0.04 | -0.0155 ± 0.0092 | 0.0165 ± 0.03 | -0.0055 ± 0.035 | -0.024 ± 0.0057 | 0.0115 ± 0.073 | -0.0095 ± 0.013 | 0.0125 ± 0.036
CASM3C:PAI-I | 0.011 ± 0.0042 | 0.0075 ± 0.012 | 0.0085 ± 0.012 | -0.0045 ± 0.0021 | 0.007 ± 0.0057 | 0.007 ± 0.0014 | 0.01 ± 0.0042 | 0.009 | 0.004 | 0.0165 ± 0.0064 | -0.0035 ± 0.011 | 0.003 ± 0.0071 | 0.0015 ± 0.0078 | -0.005 ± 0.0014 | -0.005 ± 0.0028 | 0.001 ± 0.0042 | 0.003 ± 0.0071 | 0.011 ± 0.011 | -0.011 ± 0.0014 | 0.0035 ± 0.0078
CASM3C:Proliferation | 0.015 ± 0.031 | -0.006 ± 0.035 | -0.0605 ± 0.094 | -0.0225 ± 0.037 | -0.0225 ± 0.005 | -0.0785 ± 0.012 | -0.147 ± 0.028 | -0.0125 ± 0.033 | 0.006 ± 0.042 | 0.023 ± 0.0099 | -0.0545 ± 0.005 | -0.062 ± 0.044 | -0.101 ± 0.03 | 0.0065 ± 0.033 | -0.022 ± 0.018 | 0.0135 ± 0.0035 | -0.0165 ± 0.029 | 0.0015 ± 0.018 | -0.0005 ± 0.067 | 0.0175 ± 0.046
CASM3C:SRB | 0.01 ± 0.0014 | -0.0015 ± 0.0021 | 0.002 ± 0.0028 | 0.0015 ± 0.0092 | 0.003 ± 0.0057 | -0.013 ± 0.0014 | -0.0365 ± 0.0078 | 0.011 ± 0.0042 | 0.004 | 0.006 | -0.0115 ± 0.0035 | -0.017 ± 0.0028 | -0.008 ± 0.0085 | -0.0005 ± 0.00071 | 0 ± 0.0071 | 0.003 ± 0.0071 | -0.0025 ± 0.0092 | -0.0005 ± 0.0092 | -0.0025 ± 0.0035 | -0.0085 ± 0.00071
CASM3C:Serum Amyloid A | 0.0135 ± 0.0078 | 0.0445 ± 0.0078 | 0.073 ± 0.041 | 0.033 ± 0.021 | -0.0125 ± 0.0021 | -0.031 ± 0.0085 | -0.0485 ± 0.066 | 0.0085 ± 0.026 | 0.001 ± 0.03 | 0.0125 ± 0.057 | -0.0065 ± 0.044 | -0.0225 ± 0.015 | 0.083 ± 0.055 | -0.014 ± 0.0028 | -0.009 ± 0.0042 | 0.012 ± 0.025 | -0.004 ± 0.023 | 0.0405 ± 0.0021 | -0.02 ± 0.0057 | 0.0055 ± 0.066
